# According to ChEMBL document CHEMBL3616373, “Identification of N-sulfonyl-tetrahydroquinolines as RORc inverse agonists” (Bioorg Med Chem Lett, 2015):
# Calls of active or inactive are those of the source. The rule behind the calls is not given here.
# Experiments:
# [1] = target: T1, Oxysterols receptor LXR-beta (Homo sapiens) (UniProt P55055); assay: Agonist activity at GAL4-fused human LXRbeta expressed in HEK293 cells assessed as activation of basal transcriptional activity up to 10 uM after 20 hrs by dual-glo luciferase reporter gene assay; type: cell-based
# T1 sequence (whole entry): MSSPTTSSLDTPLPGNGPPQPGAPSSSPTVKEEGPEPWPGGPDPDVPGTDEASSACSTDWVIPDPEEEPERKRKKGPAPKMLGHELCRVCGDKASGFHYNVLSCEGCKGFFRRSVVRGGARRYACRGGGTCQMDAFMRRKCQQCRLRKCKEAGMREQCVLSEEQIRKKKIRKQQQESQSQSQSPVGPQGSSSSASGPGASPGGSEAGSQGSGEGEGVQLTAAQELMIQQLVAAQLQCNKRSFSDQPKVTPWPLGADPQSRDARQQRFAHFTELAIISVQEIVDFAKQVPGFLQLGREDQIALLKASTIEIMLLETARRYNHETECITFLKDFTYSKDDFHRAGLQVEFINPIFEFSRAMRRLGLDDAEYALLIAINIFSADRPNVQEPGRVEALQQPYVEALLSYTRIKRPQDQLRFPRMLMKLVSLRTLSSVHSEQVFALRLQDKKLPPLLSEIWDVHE
# [2] = target: T2, Nuclear receptor ROR-beta (Homo sapiens, UniProt Q92753); assay: Inverse agonist activity at GAL4-fused human RORb expressed in HEK293 cells assessed as suppression of basal transcriptional activity after 20 hrs by dual-glo luciferase reporter gene assay; type: cell-based
# T2 sequence (Q92753 whole entry): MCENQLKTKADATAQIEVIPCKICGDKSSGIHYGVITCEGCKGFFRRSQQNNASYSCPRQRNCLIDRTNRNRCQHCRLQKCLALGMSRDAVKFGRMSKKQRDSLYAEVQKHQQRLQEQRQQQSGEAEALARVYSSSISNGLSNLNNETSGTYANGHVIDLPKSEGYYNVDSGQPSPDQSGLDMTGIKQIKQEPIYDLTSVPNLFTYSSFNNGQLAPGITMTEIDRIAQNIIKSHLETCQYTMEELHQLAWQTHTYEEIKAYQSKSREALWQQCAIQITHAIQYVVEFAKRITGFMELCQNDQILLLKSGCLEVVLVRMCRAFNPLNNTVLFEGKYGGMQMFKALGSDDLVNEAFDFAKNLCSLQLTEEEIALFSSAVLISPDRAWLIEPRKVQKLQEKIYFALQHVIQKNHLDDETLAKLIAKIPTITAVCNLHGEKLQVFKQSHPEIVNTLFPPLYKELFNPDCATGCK
# PBMC [3] = assay: Cytotoxicity against human PBMC assessed as effect on cell physiology after 48 hrs by CellTiter-Glo assay; type: cell-based
# [4] = Apparent permeability across apical to basolateral side in MDCK cells at 100 uM after 60 mins by HPLC analysis; type: ADME, cell-based, Canis lupus familiaris; conditions: dog
# PBMC [5] = assay: Inhibition of IL-17 production in human PBMC after 48 hrs by Sandwich ELISA; type: functional, cell-based; conditions: for EC50: Homo sapiens, PBMC, 48 h
# PBMC [6] = assay: Inhibition of IFNgamma production in human PBMC after 48 hrs by Sandwich ELISA; type: functional, cell-based
# [7] = Plasma protein binding in rat at 5 uM after 4 hrs by equilibrium dialysis method; type: ADME, cell-free; conditions: read-out: PPB
# [8] = target: T3, Oxysterols receptor LXR-alpha (Homo sapiens) (UniProt Q13133); assay: Agonist activity at GAL4-fused human LXRalpha expressed in HEK293 cells assessed as activation of basal transcriptional activity up to 10 uM after 20 hrs by dual-glo luciferase reporter gene assay; type: cell-based
# T3 sequence (whole entry): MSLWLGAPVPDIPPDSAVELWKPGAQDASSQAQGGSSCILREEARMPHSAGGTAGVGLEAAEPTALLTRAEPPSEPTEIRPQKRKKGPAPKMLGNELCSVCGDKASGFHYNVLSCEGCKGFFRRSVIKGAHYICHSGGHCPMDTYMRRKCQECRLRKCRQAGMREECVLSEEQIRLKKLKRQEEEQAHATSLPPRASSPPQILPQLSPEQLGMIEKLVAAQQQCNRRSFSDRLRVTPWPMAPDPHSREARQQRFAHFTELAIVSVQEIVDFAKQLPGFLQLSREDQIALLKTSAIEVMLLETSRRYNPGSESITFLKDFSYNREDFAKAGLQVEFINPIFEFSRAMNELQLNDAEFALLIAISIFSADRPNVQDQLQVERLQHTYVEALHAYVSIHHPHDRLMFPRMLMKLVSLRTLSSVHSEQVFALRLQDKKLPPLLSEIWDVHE
# [9] = target: T4, Oxysterols receptor LXR-alpha (Homo sapiens, UniProt Q13133); assay: Antagonist activity at GAL4-fused human LXRalpha expressed in HEK293 cells assessed as inhibition of T0901317-stimulated transcriptional activity after 20 hrs by dual-glo luciferase reporter gene assay; type: cell-based
# T4 sequence (Q13133 whole entry): T3 sequence (whole entry)
# [10] = target: Nuclear receptor ROR-alpha (→); assay: Inverse agonist activity at GAL4-fused human RORa expressed in HEK293 cells assessed as suppression of basal transcriptional activity after 20 hrs by dual-glo luciferase reporter gene assay
# [11] = target: Nuclear receptor ROR-gamma; assay: Inverse agonist activity at GAL4-fused human RORc expressed in HEK293 cells assessed as suppression of basal transcriptional activity after 20 hrs by dual-glo luciferase reporter gene assay
# HEK293 [12] = assay: Selectivity ratio of EC50 for GAL4-fused human PXR expressed in HEK293 cells to EC50 for GAL4-fused human RORc expressed in HEK293 cells; type: cell-based
# HEK293 [13] = assay: Selectivity ratio of EC50 for GAL4-fused human RORb expressed in HEK293 cells to EC50 for GAL4-fused human RORc expressed in HEK293 cells; type: cell-based
# HEK293 [14] = assay: Selectivity ratio of EC50 for GAL4-fused human FXR expressed in HEK293 cells to EC50 for GAL4-fused human RORc expressed in HEK293 cells; type: cell-based
# HEK293 [15] = assay: Selectivity ratio of EC50 for GAL4-fused human LXRbeta expressed in HEK293 cells to EC50 for GAL4-fused human RORc expressed in HEK293 cells; type: cell-based
# HEK293 [16] = assay: Selectivity ratio of EC50 for GAL4-fused human RORa expressed in HEK293 cells to EC50 for GAL4-fused human RORc expressed in HEK293 cells; type: cell-based
Compound,Activity [1],EC50 [2] [µM],EC50 (PBMC [3]) [µM],"Papp A→B at 1 h, 100 µM [4] [×10⁻⁶ cm/s]",%max (PBMC [5]) [%],EC50 (PBMC [5]) [µM],EC50 (PBMC [6]) [µM],"fraction unbound at 4 h, 5 µM [7]",Activity [8],EC50 [9] [µM],EC50 [10] [µM],EC50 [11] [µM],Ratio EC50 (HEK293 [12]),Ratio EC50 (HEK293 [13]),Ratio EC50 (HEK293 [14]),Ratio EC50 (HEK293 [15]),Ratio EC50 (HEK293 [16])
O=C(Nc1ccc2c(c1)N(S(=O)(=O)c1ccc(F)cc1)CCC2)c1c(F)cccc1Cl,inactive,3.4,> 20,12,63,2.1,> 20,< 0.01,inactive,,,,,,,,
O=C(Nc1ccc2c(c1)N(S(=O)(=O)c1ccc(F)cc1)CCC2)c1ccccc1Cl,inactive,4.1,,12,,,,< 0.01,inactive,2.6,,,,,,,
O=C(Nc1ccc2c(c1)N(S(=O)(=O)c1ccc(F)cc1)CC2)c1c(F)cccc1F,inactive,7.9,,16,,,,0.01,inactive,4.2,12,0.28,15,28,15,15,28
O=C(Nc1ccc2c(c1)N(S(=O)(=O)c1ccc(F)cc1)CCC2)c1c(F)cccc1F,inactive,5.4,> 20,22,78,1.4,> 20,0.01,inactive,4.1,,,,,,,
